Laboratory results as given in US8546421B1, “Oncogenic-RAS-signal dependent lethal compounds” (The Trustees of Columbia University in the City of New York, priority 2007, dated 2013).
In brackets after ≈: the same amount, converted by molar mass.

Key:
Calu-1 = assay: Alamar Blue assay, additional cell lines; format: cell-based, human; settings: Calu-1, Non-small cell lung carcinoma, Alamar Blue
Text: (§1) The results of this additional testing are summarized in Tables 7-10 (no additional cell lines were identified as sensitive for Compound 3). […] The tumor type, cell line, maximum percentage inhibition, the concentration of compound required to inhibit cell growth by 50%, and RAS mutation (if any) are also summarized.

PaCa-2 = assay: Alamar Blue assay, additional cell lines; format: cell-based, human; settings: Pancreatic Cancer
Text: as §1

[1] = system: BJ-TERT/LT/ST/RAS^V12 cells; assay: Alamar blue growth inhibition in dilution series; format: cell-based, human; settings: Homo sapiens, alamar blue
[2] = system: A549, Calu-1, PaCa, and HCT116 cells; assay: Alamar blue assay in KRAS-mutation-harboring cancer cells; format: cell-based, human
Procedure: A549, Calu-1, HCT116 and MIA PaCa-2 cell lines have an oncogenic mutation in the KRAS gene. Compounds which tested positive in the oncogenic HRAS primary screen were also tested for their selectivity against oncogenic KRAS which is more commonly mutated in human cancers.

HL-60(TB) = assay: cells; settings: Homo sapiens
K-562 = assay: NCI60 anti-cancer screening
RPMI-8226 = assay: NCI60 anti-cancer screening
HOP-92 = assay: NCI60 anti-cancer screening
NCI-H522 = assay: NCI60 anti-cancer screening
HCT-116 = assay: NCI60 anti-cancer screening
HT29 = assay: NCI60 anti-cancer screening
KM12 = assay: NCI60 anti-cancer screening
SW-620 = assay: NCI60 anti-cancer screening
SF-268 = assay: NCI60 anti-cancer screening
LOX IMVI = assay: NCI60 anti-cancer screening
MALME-3M = assay: NCI60 anti-cancer screening
M14 = assay: NCI60 anti-cancer screening
SK-MEL-2 = assay: NCI60 anti-cancer screening
UACC-62 = assay: NCI60 anti-cancer screening
OVCAR-4 = assay: NCI60 anti-cancer screening
786-0 = assay: NCI60 anti-cancer screening
SN12C = assay: NCI60 anti-cancer screening
UO-31 = assay: NCI60 anti-cancer screening
NCI/ADR-RES = assay: NCI60 anti-cancer screening
MDA-MB-231/ATCC = assay: NCI60 anti-cancer screening
HS 578T = assay: NCI60 anti-cancer screening
BT-549 = assay: NCI60 anti-cancer screening
[3] = system: BJ cell system (BJ-TERT, BJ-TERT/LT/ST, BJ-TERT/LT/ST/RAS^V12, DRD cells); assay: Alamar blue potency and selectivity in the engineered BJ cell system; settings: alamar blue
Procedure: Empty “step-daughter plates” were filled with 50 μL DMEM, except for columns 3 and 13, where 100 μL of hit compound solution were cherry-picked from daughter plates. After compound transfer, 2-fold dilution series across columns 3 through 12 and columns 13 through 22 was made by transferring 50 μL of compound solution to the next column successively (10-point dilution series), with extensive mixing. Hit-picking and 2-fold dilution series were carried out using Biomek FX Span-8 module (Beckman Coulter). Assay plates were prepared by seeding 1,000 BJ-TERT, BJ-TERT/LT/ST, and BJ-TERT/LT/ST/RAS^V12 cells per well in 36 μL growth medium. Cells in assay plates were treated with compounds from step-daughter plates by transferring 4 μL. The final concentration of the compound was 5.33 μg/mL to 0.01 μg/mL in this 10-point, 2-fold dilution series. Assay plates were returned to the culture incubator and maintained for 48 hours before adding alamar blue.
Fresh daughter plates were made from the mother plate and cherry-picked hits from the first round, 2-fold dilution series experiment as described above. Assay plates were prepared by seeding 1,000 BJ-TERT, BJ-TERT/LT/ST, BJ-TERT/LT/ST/RAS^V12 or BJ-TERT/p53DD/CDK4/cyclinD1/ST/RAS^V12 (DRD) cells per well in 32 μL growth media. Cells in the assay plates were treated with compounds from the step-daughter plate by transferring 8 μL solution. The final concentration of the compound was 10.66 μg/mL to 0.02 μg/mL in a 10-point, 2-fold dilution series manner. Assay plates were returned to the culture incubator and maintained for 48 hours before adding alamar blue.
Cells were seeded in 384-well assay plates, treated with candidate compounds, and incubated in the culture incubator in 40 μL culture volume per well. […] Plates were incubated further for 16 hours to allow reduction of alamar blue, which results in the generation of red fluorescence. The fluorescence intensity was determined using a Victor 3 plate reader (Perkin Elmer) with a 535 nm excitation filter and a 590 nm emission filter.
In the subsequent two-fold dilution series testing, selectivity was calculated as the ratio of GI50 values in BJ-TERT/LT/ST and BJ-TERT/LT/ST/RAS^V12 cells. […] DRD cells are also derived from BJ primary cells and the effects of mutations in both lines should be similar.

SMILES: C=C1CCC2C(C)(C)CCC[C@]2(C)C1CC/C(C)=C\CC/C(C)=N/NC(N)=S (stereo partly shown) [Compound 36]
- Maximum Inhibition % (Calu-1): 100%
- GI50 (Calu-1; Homo sapiens): 300 nM
- GI50 (PaCa-2; Homo sapiens): 1500 nM
- Maximum Inhibition % (PaCa-2): 100%
- IC90 [1]: 1 µg/mL (≈ 2.48 µM)
- activity in KRAS-mutation-harboring cancer cells (in words) [2]: active
- GI50 (HL-60(TB); HL-60): 163 nM
- CC50 (HL-60(TB); HL-60, read-out: LC 50%): 2620 nM
- GI50 (K-562; Homo sapiens, K562): 267 nM
- CC50 (K-562; Homo sapiens, K562, read-out: LC 50%): 3510 nM
- GI 100% (K-562; K-562, Leukemia): 1.08 µM
- GI50 (RPMI-8226; Homo sapiens, RPMI-8226): 194 nM
- CC50 (RPMI-8226; Homo sapiens, RPMI-8226, read-out: LC 50%): 6980 nM
- GI 100% (RPMI-8226; RPMI-8226, Leukemia): 0.889 µM
- GI 100% (HOP-92; HOP-92, Non-small cell lung carcinoma): 1.52 µM
- GI50 (HOP-92; Homo sapiens, HOP-92): 479 nM
- CC50 (HOP-92; Homo sapiens, HOP-92, read-out: LC 50%): 3960 nM
- GI50 (NCI-H522; Homo sapiens, NCI-H522): 82.9 nM
- CC50 (NCI-H522; Homo sapiens, NCI-H522, read-out: LC 50%): 1180 nM
- GI 100% (NCI-H522; NCI-H522, Non-small cell lung carcinoma): 0.309 µM
- GI 100% (HCT-116; HCT-116, Colon Cancer): 1.11 µM
- GI50 (HCT-116; Homo sapiens, HCT-116): 252 nM
- CC50 (HCT-116; Homo sapiens, HCT-116, read-out: LC 50%): 3320 nM
- GI 100% (HT29; HT29, Colon Cancer): 1.37 µM
- GI50 (HT29; Homo sapiens, HT-29): 322 nM
- CC50 (HT29; Homo sapiens, HT-29, read-out: LC 50%): 4100 nM
- GI50 (KM12; Homo sapiens, KM12): 469 nM
- CC50 (KM12; Homo sapiens, KM12, read-out: LC 50%): 4470 nM
- GI 100% (KM12; KM12, Colon Cancer): 1.8 µM
- GI50 (SW-620; Homo sapiens, SW-620): 184 nM
- CC50 (SW-620; Homo sapiens, SW-620, read-out: LC 50%): 2540 nM
- GI 100% (SW-620; SW-620, Colon Cancer): 0.569 µM
- GI50 (SF-268; Homo sapiens, SF-268): 1090 nM
- CC50 (SF-268; Homo sapiens, SF-268, read-out: LC 50%): 5740 nM
- GI 100% (SF-268; SF-268, CNS Cancer): 2.5 µM
- GI50 (LOX IMVI; Homo sapiens): 203 nM
- CC50 (LOX IMVI; Homo sapiens, read-out: LC 50%): 1320 nM
- GI 100% (LOX IMVI; Melanoma): 0.478 µM
- GI50 (MALME-3M; Homo sapiens, Malme-3M): 550 nM
- CC50 (MALME-3M; Homo sapiens, Malme-3M, read-out: LC 50%): 4570 nM
- GI 100% (MALME-3M; MALME-3M, Melanoma): 1.83 µM
- GI50 (M14; Homo sapiens, M14): 384 nM
- CC50 (M14; Homo sapiens, M14, read-out: LC 50%): 4800 nM
- GI 100% (M14; M14, Melanoma): 1.59 µM
- GI50 (SK-MEL-2; Homo sapiens, SK-MEL-2): 297 nM
- CC50 (SK-MEL-2; Homo sapiens, SK-MEL-2, read-out: LC 50%): 4930 nM
- GI 100% (SK-MEL-2; SK-MEL-2, Melanoma): 1.01 µM
- GI50 (UACC-62; Homo sapiens, UACC-62): 214 nM
- CC50 (UACC-62; Homo sapiens, UACC-62, read-out: LC 50%): 853 nM
- GI 100% (UACC-62; UACC-62, Melanoma): 0.427 µM
- GI50 (OVCAR-4; Homo sapiens, OVCAR-4): 147 nM
- CC50 (OVCAR-4; Homo sapiens, OVCAR-4, read-out: LC 50%): 1310 nM
- GI 100% (OVCAR-4; OVCAR-4, Ovarian Cancer): 0.405 µM
- GI 100% (786-0; 786-0, Renal Cancer): 0.907 µM
- GI50 (786-0; Homo sapiens, 786-0): 252 nM
- CC50 (786-0; Homo sapiens, 786-0, read-out: LC 50%): 3020 nM
- GI50 (SN12C; Homo sapiens): 351 nM
- CC50 (SN12C; Homo sapiens, read-out: LC 50%): 3670 nM
- GI 100% (SN12C; Renal Cancer): 1.35 µM
- GI50 (UO-31; Homo sapiens, UO-31): 125 nM
- CC50 (UO-31; Homo sapiens, UO-31, read-out: LC 50%): 1470 nM
- GI 100% (UO-31; UO-31, Renal Cancer): 0.385 µM
- GI 100% (NCI/ADR-RES; Breast Cancer): 2.34 µM
- GI50 (NCI/ADR-RES; Homo sapiens): 1040 nM
- CC50 (NCI/ADR-RES; Homo sapiens, read-out: LC 50%): 5270 nM
- GI50 (MDA-MB-231/ATCC; Homo sapiens, MDA-MB-231): 341 nM
- CC50 (MDA-MB-231/ATCC; Homo sapiens, MDA-MB-231, read-out: LC 50%): 3270 nM
- GI 100% (MDA-MB-231/ATCC; MDA-MB-231/ATCC, Breast Cancer): 1.36 µM
- GI 100% (HS 578T; HS 578T, Breast Cancer): 2.27 µM
- GI50 (HS 578T; Homo sapiens, Hs-578T): 420 nM
- CC50 (HS 578T; Homo sapiens, Hs-578T, read-out: LC 50%): > 10000 nM
- GI 100% (BT-549; BT-549, Breast Cancer): 1.3 µM
- GI50 (BT-549; Homo sapiens, BT-549): 302 nM
- CC50 (BT-549; Homo sapiens, BT-549, read-out: LC 50%): 4070 nM
- degree of selectivity between BJ-TERT/LT/ST/RAS^V12 and BJ-TERT [3]: up to 16 fold
- growth inhibitory activity and selectivity in the BJ cell system (in words) ([3]; structural analogs and hits): slightly lower potency and selectivity than the original hit
